Entries after “also recorded” stand apart in the source; their conditions may differ.
Assays:
[1] = target: T1, COX-2 in stimulated RAW 264.7 macrophages (Mus musculus, UniProt Q05769); experiment: RAW 264.7 macrophage inhibition assay (Compound A); format: cell-based
T1 construct: endogenous in cells; host or cells: RAW 264.7 macrophages stimulated with LPS (and GM-CSF / interferon γ where described)
T1 sequence (Q05769 18-604): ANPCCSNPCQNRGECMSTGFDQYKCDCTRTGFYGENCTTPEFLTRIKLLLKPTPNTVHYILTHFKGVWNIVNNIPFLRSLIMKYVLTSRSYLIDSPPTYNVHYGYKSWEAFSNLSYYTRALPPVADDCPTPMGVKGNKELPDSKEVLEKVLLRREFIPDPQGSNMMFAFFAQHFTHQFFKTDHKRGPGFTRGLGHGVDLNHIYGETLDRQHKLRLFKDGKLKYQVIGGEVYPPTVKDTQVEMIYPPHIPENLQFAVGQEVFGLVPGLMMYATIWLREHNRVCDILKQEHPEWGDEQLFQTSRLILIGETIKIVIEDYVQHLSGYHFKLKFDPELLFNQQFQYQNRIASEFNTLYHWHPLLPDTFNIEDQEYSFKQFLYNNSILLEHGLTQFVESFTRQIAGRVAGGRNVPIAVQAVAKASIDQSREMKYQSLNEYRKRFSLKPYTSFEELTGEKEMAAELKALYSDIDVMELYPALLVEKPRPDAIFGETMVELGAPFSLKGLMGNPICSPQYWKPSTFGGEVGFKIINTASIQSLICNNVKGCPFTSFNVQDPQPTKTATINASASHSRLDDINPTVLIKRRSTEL

Human DAGLα = target: T2, Human DAGLα (Homo sapiens, UniProt Q9Y4D2); experiment: DAGLα activity (Compound A); format: biochemical; conditions: in vitro
T2 construct: made in house; host or cells: HEK293T cells (transfected, pcDNA3.1D); membranes used
T2 sequence (Q9Y4D2 1-1042): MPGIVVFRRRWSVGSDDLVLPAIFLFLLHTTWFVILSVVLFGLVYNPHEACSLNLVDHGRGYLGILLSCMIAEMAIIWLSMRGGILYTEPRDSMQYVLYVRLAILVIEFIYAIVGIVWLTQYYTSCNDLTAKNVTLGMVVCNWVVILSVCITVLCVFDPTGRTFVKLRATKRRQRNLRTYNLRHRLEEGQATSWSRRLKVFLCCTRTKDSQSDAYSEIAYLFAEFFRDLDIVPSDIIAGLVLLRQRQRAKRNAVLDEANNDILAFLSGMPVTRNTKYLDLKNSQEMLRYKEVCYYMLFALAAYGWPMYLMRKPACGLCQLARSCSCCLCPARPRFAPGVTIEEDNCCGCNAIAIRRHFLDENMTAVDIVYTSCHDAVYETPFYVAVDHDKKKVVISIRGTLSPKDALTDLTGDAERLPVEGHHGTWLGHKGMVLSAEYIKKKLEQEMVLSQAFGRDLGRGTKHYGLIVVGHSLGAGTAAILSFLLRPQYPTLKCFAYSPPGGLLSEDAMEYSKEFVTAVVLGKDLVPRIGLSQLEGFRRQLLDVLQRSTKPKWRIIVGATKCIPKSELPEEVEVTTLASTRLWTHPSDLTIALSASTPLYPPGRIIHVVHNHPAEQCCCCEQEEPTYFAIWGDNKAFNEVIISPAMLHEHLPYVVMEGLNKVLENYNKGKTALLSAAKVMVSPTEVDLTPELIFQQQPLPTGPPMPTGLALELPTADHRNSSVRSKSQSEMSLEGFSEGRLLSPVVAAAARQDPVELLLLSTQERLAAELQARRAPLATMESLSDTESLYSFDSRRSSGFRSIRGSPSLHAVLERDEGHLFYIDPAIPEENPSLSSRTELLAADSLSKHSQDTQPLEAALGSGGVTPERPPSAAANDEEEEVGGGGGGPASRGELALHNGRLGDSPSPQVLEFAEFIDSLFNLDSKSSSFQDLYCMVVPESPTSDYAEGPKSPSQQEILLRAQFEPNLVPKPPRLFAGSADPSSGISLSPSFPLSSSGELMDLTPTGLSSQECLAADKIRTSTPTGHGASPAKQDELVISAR

ICR mice [2] = experiment: Elevated plus-maze (EPM); format: in vivo; conditions: 10 mg/kg
ICR mice [3] = experiment: Novel object recognition; format: in vivo; conditions: 10 mg/kg i.p., prior to object memory retrieval
Protocol: Mice were handled 4 days prior to training for at least 1 min per day. During pre-training, mice were placed in an open Plexiglas rectangular chamber for 10 minutes in order for the mice to become familiar with the testing environment. Twenty-four hours later, the mice were placed into the same rectangular chamber with two identical sample objects, yellow rubber ducks, for 10 minutes in order for the mice to become familiar with the objects. During training, the sample objects were placed in opposite corners in the back of the chamber 5 cm from each wall and secured by weight to the floor of the chamber. Twenty-four hours later, the mice were placed into the chamber again with one sample or familiar object and a novel object, a white leaf statue, for 5 minutes. During testing, the objects were placed in opposite corners in the back of the chamber 5 cm from each wall and secured by weight to the floor of the chamber.
To determine exploration time with the sample and novel objects, each mouse was timed when interacting with the sample or novel object when the nose of the mouse was in contact with the object or directed toward the object within a 2 cm distance of the object. […] In addition, a discrimination ratio (e.g., ratio of a mouse's interaction with a novel object to that mouse's total interaction with both sample and novel objects) was determined. […]

[4] = lipopolysaccharide-activated RAW 264.7 macrophages
[5] = stimulated RAW 264.7 macrophages

COc1ccc2c(c1)c(CC(=O)N1CCOCC1)c(C)n2C(=O)c1ccc(Cl)cc1 [Compound A, 2-[1-(4-Chloro-benzoyl)-5-methoxy-2-methyl-1H-indol-3-yl]-1-morpholin-4-yl-ethanone]
Inhibition of AA oxygenation in cells [1, 4]: without inhibiting AA oxygenation
Inhibition of eCB oxygenation by COX-2 in cells [1, 4]: effective at inhibiting eCB oxygenation
2-AG levels [1, 5]: increasing; also recorded: concentration-dependently increased
AA levels [1, 5]: without increasing AA levels
2-AG levels ([1]; stimulated RAW 264.7 macrophages, 3 μM (p=0.007)): significantly increased
Inhibition of DAGLα (Human DAGLα): did not inhibit
Open arm latency (ICR mice [2]): significantly reduced; also recorded: decreased
Other EPM parameters (open arm time, total distance traveled) (ICR mice [2]): did not affect; also recorded: did not increase
Memory deficits in the novel object recognition assay (ICR mice [3]): did not induce memory deficits

— patent US20150183737A1, “COMPOSITIONS AND METHODS FOR SUBSTRATE-SELECTIVE INHIBITION OF ENDOCANNABINOID OXYGENATION” (Vanderbilt University, priority 2012, published 2015)
